Here are results for 16 compounds from US11178871B2, “Herbicidal pyrimidine compounds” (BASF SE, priority 2016, dated 2021).

Format in all cases: in vivo
For one experiment, the system named is Alopecurus myosuroides. Briefly: greenhouse test, post-emergence treatment, ALOMY. The following applies: post-emergence. The gist of the method: (§1)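 Plants grown in loamy sand (~3.0% humus) to 3–15 cm height, then sprayed post-emergence with active ingredient suspended or emulsified in water. Kept at 10–25 °C or 20–35 °C by species for 2–4 weeks; damage scored visually 0–100 (100 = complete destruction of aerial parts, 0 = normal growth).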

Experiment [1] relates to Amaranthus retroflexus. Kind of experiment: greenhouse test, post-emergence treatment, AMARE. The gist of the method: as §1
The subject of experiment [2] is Echinocloa crus-galli. Kind of experiment: greenhouse test, post-emergence treatment, ECHCG. The settings on record: post-emergence. The gist of the method: as §1
The subject of the next experiment is Apera spica-venti. Kind of experiment: greenhouse test, pre-emergence treatment, APESV. In outline: (§2)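 Damage scored visually on a 0-100 scale (100 = no emergence or complete destruction of aerial parts, 0 = normal growth) after 2 to 4 weeks. Treatment was applied pre-emergence as an aqueous suspension or emulsion immediately after sowing in loamy sand (approx. 3.0% humus).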

Experiment [3] deals with Echinocloa crus-galli. Briefly: greenhouse test, pre-emergence treatment, ECHCG. In outline:
as §2

In a further experiment the test system is Agrostis stolonifera. Kind of experiment: greenhouse test, pre-emergence treatment, AGSST. The settings on record: 2000 g/ha. From the text:
(§3) The culture containers used were plastic flowerpots containing loamy sand with approximately 3.0% of humus as the substrate. The seeds of the test plants were sown separately for each species.
(§4) For the pre-emergence treatment, the active ingredients, which had been suspended or emulsified in water, were applied directly after sowing by means of finely distributing nozzles. The containers were irrigated gently to promote germination and growth and subsequently covered with transparent plastic hoods until the plants had rooted. This cover caused uniform germination of the test plants, unless this had been impaired by the active ingredients.
(§5) Depending on the species, the plants were kept at 10-25° C. or 20-35° C., respectively.
(§6) The test period extended over 2 to 4 weeks. During this time, the plants were tended, and their response to the individual treatments was evaluated.
(§7) Evaluation was carried out using a scale from 0 to 100. 100 means no emergence of the plants, or complete destruction of at least the aerial moieties, and 0 means no damage, or normal course of growth. A good herbicidal activity is given at values of at least 70 and a very good herbicidal activity is given at values of at least 85.
(§8) The plants used in the greenhouse experiments were of the following species: […]

Experiment [4] concerns Poa annua. Kind of experiment: greenhouse test, post-emergence treatment, POAAN.
Text: as §3
(§9) For the post-emergence treatment, the test plants were first grown to a height of 3 to 15 cm, depending on the plant habit, and only then treated with the active ingredients which had been suspended or emulsified in water. For this purpose, the test plants were either sown directly and grown in the same containers, or they were first grown separately as seedlings and transplanted into the test containers a few days prior to treatment.
as §5, §6, §7, §8

The next experiment has as its system Lolium multiflorum. Kind of experiment: greenhouse test, post-emergence treatment, LOLMU. The following applies: 250 g/ha.
Text: as §3, §9, §5, §6, §7, §8

For the next experiment, the system named is Setaria viridis. Kind of experiment: greenhouse test, post-emergence treatment, SETVI. The settings on record: 1000 g/ha. The gist of the method:
as §1

The test system of a further experiment is Setaria faberi. Briefly: greenhouse test, pre-emergence treatment, SETFA.
Text: as §3, §4, §5, §6, §7, §8

The test system of another experiment is Polygonum convolvulus. Briefly: greenhouse test, post-emergence treatment, POLCO. The following applies: 500 g/ha.
Text: as §3, §9, §5, §6, §7, §8

Experiment [5] has as its system Poa annua. Kind of experiment: greenhouse test, pre-emergence treatment, POAAN.
Text: as §3, §4, §5, §6, §7, §8

The test system of a further experiment is Abutilon theophrasti. Kind of experiment: greenhouse test, post-emergence treatment, ABUTH. The gist of the method: as §1
Another experiment concerns Matricaria inodora. Kind of experiment: greenhouse test, post-emergence treatment, MATIN. The following applies: 2000 g/ha.
Text: as §3, §9, §5, §6, §7, §8

For experiment [6], the system named is Amaranthus retroflexus. Kind of experiment: greenhouse test, pre-emergence treatment, AMARE. The following applies: 1000 g/ha.
Text: as §3, §4, §5, §6, §7, §8

Turning to `Clc1ccccc1-c1cnc(C2CC2)nc1C(Br)Br` [Ex. 35], the herbicidal activity entry in the experiment on Alopecurus myosuroides (2000 g/ha), in the experiment with Amaranthus retroflexus [1] (2000 g/ha), in the experiment on Echinocloa crus-galli [2] (2000 g/ha), in the experiment with Apera spica-venti (2000 g/ha), in the experiment on Echinocloa crus-galli [3] (2000 g/ha) and in the experiment with Agrostis stolonifera was “very good (a very good herbicidal activity is given at values of at least 85)” in each case.

Turning to `Clc1ccccc1-c1cnc(C2CC2)nc1-c1ccnnc1` [Ex. 234], the results for the herbicidal activity entry with Poa annua [4] (2000 g/ha) and in the experiment on Apera spica-venti (2000 g/ha) were “good (A good herbicidal activity is given at values of at least 70)” and “very good (a very good herbicidal activity is given at values of at least 85)”, respectively.

For the compound `OCc1nc(C2CC2)ncc1-c1cc(F)ccc1Cl` [Ex. 14], the herbicidal activity result is “good (A good herbicidal activity is given at values of at least 70)” in the experiment on Lolium multiflorum and “very good (a very good herbicidal activity is given at values of at least 85)” with Apera spica-venti (250 g/ha).

As to `Clc1ccccc1-c1cnc(C2CC2)nc1C1CCOC1` (centres unmarked) [Ex. 59], the herbicidal activity entry with Echinocloa crus-galli [2] (1000 g/ha) is on record as “good (A good herbicidal activity is given at values of at least 70)”; with Setaria viridis it was “very good (a very good herbicidal activity is given at values of at least 85)”; in the experiment on Echinocloa crus-galli [3] (1000 g/ha), “very good (a very good herbicidal activity is given at values of at least 85)”; in the experiment with Setaria faberi (1000 g/ha) it was “good (A good herbicidal activity is given at values of at least 70)”.

On to `Cc1ncc(-c2nc(C3CC3)ncc2-c2ccccc2Cl)o1` [Ex. 244], for which the herbicidal activity entry in the experiment with Alopecurus myosuroides (500 g/ha) is reported as “good (A good herbicidal activity is given at values of at least 70)”; in the experiment on Poa annua [4] (500 g/ha), “good (A good herbicidal activity is given at values of at least 70)”; with Polygonum convolvulus, “good (A good herbicidal activity is given at values of at least 70)”; in the experiment on Apera spica-venti (500 g/ha) it was “very good (a very good herbicidal activity is given at values of at least 85)”; with Echinocloa crus-galli [3] (500 g/ha) it was “very good (a very good herbicidal activity is given at values of at least 85)”; with Poa annua [5] (500 g/ha) it was “very good (a very good herbicidal activity is given at values of at least 85)”.

Consider `Brc1ccccc1-c1cnc(C2CC2)nc1C(Br)Br` [Ex. 27], for which the herbicidal activity entry with Alopecurus myosuroides (2000 g/ha), in the experiment with Amaranthus retroflexus [1] (2000 g/ha), in the experiment on Echinocloa crus-galli [2] (2000 g/ha), with Apera spica-venti (2000 g/ha), in the experiment on Echinocloa crus-galli [3] (2000 g/ha) and in the experiment on Agrostis stolonifera was “very good (a very good herbicidal activity is given at values of at least 85)” each time.

With `COCC(=Cc1nc(C2CC2)ncc1-c1ccccc1Cl)COC` [Ex. 293], the herbicidal activity result is reported as “good (A good herbicidal activity is given at values of at least 70)” with Abutilon theophrasti (1000 g/ha), “good (A good herbicidal activity is given at values of at least 70)” in the experiment with Echinocloa crus-galli [3] (1000 g/ha) and “very good (a very good herbicidal activity is given at values of at least 85)” in the experiment with Setaria faberi (1000 g/ha).

On to `N#CC(C#N)c1nc(C2CC2)ncc1-c1ccccc1Br` [Ex. 25], for which the herbicidal activity result with Matricaria inodora, in the experiment on Poa annua [5] (2000 g/ha) and with Agrostis stolonifera was “very good (a very good herbicidal activity is given at values of at least 85)” each time.

As for `Cc1cocc1-c1nc(C2CC2)ncc1-c1ccccc1Br` [Ex. 269], the herbicidal activity entry with Echinocloa crus-galli [2] (1000 g/ha) and with Setaria faberi (1000 g/ha) was “very good (a very good herbicidal activity is given at values of at least 85)” in each case.

With `Fc1ccc(-c2nc(C3CC3)ncc2-c2ccccc2Cl)cc1` [Ex. 11], the figures for the herbicidal activity entry in the experiment with Echinocloa crus-galli [3] (2000 g/ha) and with Setaria faberi (2000 g/ha) were “good (A good herbicidal activity is given at values of at least 70)” and “very good (a very good herbicidal activity is given at values of at least 85)”, respectively.

As for `Cc1ocnc1-c1nc(C2CC2)ncc1-c1ccccc1Cl` [Ex. 267], the herbicidal activity result with Abutilon theophrasti (2000 g/ha), with Echinocloa crus-galli [2] (2000 g/ha), in the experiment with Poa annua [4] (2000 g/ha), in the experiment with Echinocloa crus-galli [3] (2000 g/ha) and in the experiment on Poa annua [5] (2000 g/ha) was “very good (a very good herbicidal activity is given at values of at least 85)” each time.

In the case of `O=[N+]([O-])c1ccccc1-c1cnc(C2CC2)nc1-c1ccco1` [Ex. 37], the herbicidal activity entry with Setaria faberi (2000 g/ha) is given as “good (A good herbicidal activity is given at values of at least 70)”.

`CCc1ncoc1-c1nc(C2CC2)ncc1-c1ccccc1Cl` [Ex. 286]: the herbicidal activity result with Abutilon theophrasti (1000 g/ha), with Amaranthus retroflexus [1] (1000 g/ha), in the experiment on Echinocloa crus-galli [2] (1000 g/ha), in the experiment with Amaranthus retroflexus [6], in the experiment on Apera spica-venti (1000 g/ha) and with Echinocloa crus-galli [3] (1000 g/ha) was “very good (a very good herbicidal activity is given at values of at least 85)” each time.

For the compound `Cc1nc(C2CC2)ncc1-c1ccccc1C(F)(F)F` [Ex. 17], the herbicidal activity result in the experiment on Echinocloa crus-galli [3] (2000 g/ha), in the experiment on Setaria faberi (2000 g/ha) and in the experiment on Agrostis stolonifera was “very good (a very good herbicidal activity is given at values of at least 85)” each time.

Consider `OC(c1nc(Cl)ccc1Cl)C(O)c1nc(C2CC2)ncc1-c1ccccc1Cl` (centres unmarked) [Ex. 259], for which the herbicidal activity result in the experiment with Alopecurus myosuroides (2000 g/ha) is on record as “very good (a very good herbicidal activity is given at values of at least 85)”; in the experiment on Echinocloa crus-galli [2] (2000 g/ha) it was “very good (a very good herbicidal activity is given at values of at least 85)”; in the experiment with Poa annua [4] (2000 g/ha), “very good (a very good herbicidal activity is given at values of at least 85)”; with Apera spica-venti (2000 g/ha), “good (A good herbicidal activity is given at values of at least 70)”; in the experiment with Echinocloa crus-galli [3] (2000 g/ha), “good (A good herbicidal activity is given at values of at least 70)”.

For the compound `N#CC(C#N)c1nc(C2CC2)ncc1-c1ccc(F)cc1Br` [Ex. 36], the herbicidal activity result with Matricaria inodora, with Poa annua [5] (2000 g/ha) and with Agrostis stolonifera was “very good (a very good herbicidal activity is given at values of at least 85)” throughout.
